Reference: patent US10908171B2, “Additive channels” (Emulate Inc., priority 2016, dated 2021)

System: platelets
Experiment: Platelet activation quality control by p-selectin expression
Type: cell-based, human
Details: control blood
Description: To test for a thrombic event, blood was collected from 4 donors, the as blood alone or blood treated with hu5C8 alone (240 μg/ml), sCD40L (10 ng/ml) alone or with combined hu5C8/sCD40L was incubated for 20 minutes at room temperature. Each sample was further incubated for 5 minutes with fluorescent labels for platelets and fibrinogen. As a standard quality control, the control blood was tested for platelet activation using p-selection expression. We confirmed that platelets in control blood were not activated but upon activation by ADP, over 90% of platelet was positive for p-selectin.

SMILES: Nc1ncnc2c1ncn2[C@@H]1O[C@H](COP(=O)(O)OP(=O)(O)O)[C@@H](O)[C@H]1O [ADP]
- platelets positive for p-selectin upon activation: over 90%
